Experimental data: patent US20230133064A1, “T CELL MANUFACTURING PROCESS” (Adaptimmune Limited, priority 2020, published 2023)

Tests used:
Format in all cases: cell-based, human
[1] = system: T-cells stimulated with MAGEA4-positive cell line A375; experiment: Antigen-stimulated IFNγ release by ELISA, expanded T-cells co-cultured with A375 for 48 hours
Procedure: Function of expanded T-cells was evaluated based on the levels of cytokine release by expanded T-cells following antigen-stimulation with the MAGEA4-expressing cell line, A375. A375 MAGEA4 positive target cells were counted using automated cell counter and seeded in a 96 well U-bottom plate at 30,000 viable nucleated cells (VNC) per well, in 100 uL volume per well, one day prior to T-cell stimulation and incubated overnight at 37° C., 5% CO2. Wells that were used as “T cells alone” control, received 100 uL R10 media (RPMI medium with 10% FBS and 1% Penicillin/Streptomycin) only. Following overnight incubation of target cells, harvested and frozen T-cells were thawed at 37° C. in the water bath and washed with R10 media. Cells were rested in R10 media at a density of 2×10^6 VNC/mL for 2 hours at 37° C., 5% CO2. After 2-hour rest, T-cells were counted using automated cell counter, and cultures were normalised to 35% transduction efficiency for all donors combining calculated amount of transduced and non-transduced VNC for each condition. […] Colorimetric read-out was analysed (BMG LABTECH FLUOstar Omega plate reader) at OD 450. […] For the cytokine release assays, the target and effector cells were co-cultured for 48 hours then the supernatants were collected and analysed for IFN gamma levels by ELISA. […]

T cells [2] = experiment: Memory phenotype flow cytometry (CCR7/CD45RA) of transduced CD8+ T cells at day 10 harvest
Excerpt: All cells were expanded and transduced, using a static expansion system, (scalable G-Rex®). Cryopreserved leukapheresis starting materials from healthy donors or cancer patients were thawed, washed, activated with CD3/CD28 magnetic Dynabeads, and CD3+ positive fraction was magnetically separated. The starting leukapheresis material was similar across the healthy donors. CD3+ cells ranged from 44-64%, all with an increased purity of 79-87% following positive isolation using anti CD3/CD28 Dynabeads. CD3+ phenotyping identified a range of stem cell memory (SCM) markers (CCR7+/CD45RA+) ranging from 11.6-57% in the CD8+ compartment between individuals. Enriched CD3+ T cells were seeded based on total nucleated cell (TNC) counts at 1.5×10^6 TNC/cm^2 density in the G-Rex® static cell expansion system device, in 10% of final culture volume using TexMACS+5% human AB serum (HABS) supplemented with 100 IU/ml IL-2. Transduction with vector expressing a heterologous TCR (recognising MAGE-A4) was performed 18-26 hours post addition of CD3/CD28 Dynabeads to the cells, using lentivirus (LV) vector at a MOI of 0.45. Media was then added to top up to the final culture volume, this was performed 17-24 hours post transduction with TexMACS+5% HABS+500 IU/ml IL-2. Cells were then incubated at 37° C., 5% CO2 for a further 8 days. MK-2206 was added to the media at defined intervals; in day 0 seeding media and supplemented in media used for day 2 media addition, or solely supplemented in media for day 2 media addition. The concentration of the compound varied for each experiment, 10 uM, 7.5 uM, 5 uM, 2.5 uM, 2 uM, 1.5 uM, 1 uM, 0.5 uM, 0.25 uM, 0.1 uM, 0.05 uM as dictated in the following examples. T cells were harvested 10 days post seeding. After bead removal, T-cells were counted by automated cell analysis (with […]). Harvested cells were then frozen for later phenotypic and functional analysis as described. Flow cytometry was performed on healthy donor material on day 10 harvest from the described process to determine Memory Phenotype markers of cultured cells using CCR7 and CD45RA staining

T cells [3] = experiment: T cell expansion in G-Rex static culture, TNC counts at day 10 harvest (ViCELL)
Excerpt: All cells were expanded and transduced, using a static expansion system, (scalable G-Rex®). Cryopreserved leukapheresis starting materials from healthy donors or cancer patients were thawed, washed, activated with CD3/CD28 magnetic Dynabeads, and CD3+ positive fraction was magnetically separated. The starting leukapheresis material was similar across the healthy donors. CD3+ cells ranged from 44-64%, all with an increased purity of 79-87% following positive isolation using anti CD3/CD28 Dynabeads. CD3+ phenotyping identified a range of stem cell memory (SCM) markers (CCR7+/CD45RA+) ranging from 11.6-57% in the CD8+ compartment between individuals. Enriched CD3+ T cells were seeded based on total nucleated cell (TNC) counts at 1.5×10^6 TNC/cm^2 density in the G-Rex® static cell expansion system device, in 10% of final culture volume using TexMACS+5% human AB serum (HABS) supplemented with 100 IU/ml IL-2. Transduction with vector expressing a heterologous TCR (recognising MAGE-A4) was performed 18-26 hours post addition of CD3/CD28 Dynabeads to the cells, using lentivirus (LV) vector at a MOI of 0.45. Media was then added to top up to the final culture volume, this was performed 17-24 hours post transduction with TexMACS+5% HABS+500 IU/ml IL-2. Cells were then incubated at 37° C., 5% CO2 for a further 8 days. MK-2206 was added to the media at defined intervals; in day 0 seeding media and supplemented in media used for day 2 media addition, or solely supplemented in media for day 2 media addition. The concentration of the compound varied for each experiment, 10 uM, 7.5 uM, 5 uM, 2.5 uM, 2 uM, 1.5 uM, 1 uM, 0.5 uM, 0.25 uM, 0.1 uM, 0.05 uM as dictated in the following examples. T cells were harvested 10 days post seeding. After bead removal, T-cells were counted by automated cell analysis (with ViCELL). Harvested cells were then frozen for later phenotypic and functional analysis as described.
Healthy donor material (leukapheresis material comprising white blood cells separated from a donor sample of blood) was processed for culture in static expansion (G-Rex device) following the aforementioned process for a 10 day duration. The cells were cultured with MK-2206 (1.25, 2.5, 5.0, 10 uM) added to cultures on day 0+day 2 or day 2 alone (with the day 2 media addition). On harvest, Total Nucleated Cell (TNC) counts were performed using an automated cell counter (ViCELL) to provide expansion data, and flow cytometry performed to determine phenotype. The harvested cultures were frozen and later thawed for functional assessment, an antigen stimulated cytokine release assay (1.3 described above).
The concentration of MK-2206 was tested in further titratration from 0.05 to 10 uM to fully determine optimal dosing and day 0(+2) and day 2 alone are both assessed to determine the optimal time of addition. Again, expansion, phenotype and cytokine production data has been assessed. An additional four donors were tested at the varying concentrations, to provide a full titration range in this study, 10 uM to 0.05 uM. All donors were tested in 10 M G-Rex following the described process and were harvested on Day 10. Expansion data considered the timepoint of addition of MK-2206; Day 0+2 and Day 2 alone.

[4] = Day 0+2 addition, all concentrations 0.05-10 uM, across donors, FIG. 3A

NC1(c2ccc(-c3nc4ccn5c(=O)[nH]nc5c4cc3-c3ccccc3)cc2)CCC1 [MK-2206]
IFN gamma production following antigen stimulation versus untreated control ([1]; day 2 addition of MK-2206, FIG. 5): highest increase | IFN gamma production following antigen stimulation ([1]; increasing MK-2206 concentration, >5 uM, FIG. 5): decrease | CCR7+CD45RA+ populations at harvest compared to the untreated control (T cells [2]; added on day 0+2 and day 2 alone, CD3+/Dextramer+/CD8+ compartment, FIG. 4): increased | EMRA population versus untreated control (T cells [2]; all concentrations tested): remains similar to the untreated control | CD62L expression (T cells [2]; cells cultured with MK-2206): increase | CCR7−CD45RA− effector memory (EM) populations (T cells [2]; cells cultured with MK-2206, FIG. 4): decrease | expansion (TNC counts) (T cells [3]; 10 uM, all timepoints for addition, FIG. 2): reduced expansion | TNC yield (T cells [3]; Day 0(+2) addition, FIG. 2): low yield | limit of expansion decrease (fold change to untreated control) (T cells [3]; [4]): 0.15 fold | limit of expansion increase (fold change to untreated control) (T cells [3]; [4]): 1.5 fold | impact on expansion (T cells [3]; Day 2 addition, 0.05-10 uM, FIG. 3B): no negative impact on expansion | concentration providing peak expansion (T cells [3]; Day 2 addition, 3 donors, FIG. 3B): 0.5 µM | expansion response relative to control (T cells [3]; Day 2 addition, all conditions, FIG. 3B): 1-2 fold | T cell expansion (T cells [3]; MK-2206 added on Day 2, after activation on day 0 and transduction on day 1): Improved T cell expansion | TNC yield (T cells [3]; day 2 alone addition, with exception of 10 uM, FIG. 2): improved TNC yield | expansion (TNC counts) compared to the untreated control (T cells [3]; healthy donor material, lower concentrations of MK-2206 (1.25-10 uM tested), day 10 harvest, FIG. 2): increased expansion
